One compound from PMC6032235 (2018) can be followed below.

What all share (assay): CD
In test [1] the test system is B-linker (B1/B2 assembly) (DNA, aptamer) GAGAGTCAATCGACCTGGGGGAGTATTGCGGAGGAAGGTACGCATTCGCTATA/GAGAGTCAATCGTATAGCGAATGCGT
Particulars: 300 mM NaCl, 5 mM MgCl2; 20 mM Tris-HCl; 5 μM DNA, 1 mM ATP; peak shift 273 to 279 nm; CD alone not conclusive.

Test [2] concerns B1 (DNA, aptamer) GAGAGTCAATCGACCTGGGGGAGTATTGCGGAGGAAGGTACGCATTCGCTATA
Particulars: 300 mM NaCl, 5 mM MgCl2; 20 mM Tris-HCl; 5 μM DNA, 1 mM ATP, room temperature; peak shift 272 to 277 nm.

The test system of test [3] is L1 (random DNA sequence) (DNA, single strand) GAGAGTCAATCGTCTATTCGCATGAGAATTCCATTCACCGTAAG
Particulars: 300 mM NaCl, 5 mM MgCl2; 20 mM Tris-HCl; 5 μM DNA, 1 mM ATP; nonspecific peak shift 277 to 280 nm.

Turning to `Nc1ncnc2c1ncn2[C@@H]1O[C@H](COP(=O)(O)OP(=O)(O)OP(=O)(O)O)[C@@H](O)[C@H]1O`, the figures for the binding entry in test [1], in test [2] and in test [3] were “yes”, “yes” and “no”, respectively.
